Experimental data from patent US7659394B2 (Pfizer Inc, priority 2004, dated 2010).
Like-named read-outs stand apart in the source and are kept apart here.

How the values were obtained:
[1] = target: T1, human norepinephrine transporter (Homo sapiens, UniProt P23975); test: hNET receptor binding ([125I]-RTI-55 radioligand binding); settings: membranes of HEK-293 cells transfected with human norepinephrine transporter, IC50 converted to Ki by Cheng-Prusoff
T1 construct: host or cells: HEK-293
Excerpt: (§1) The ability of the compounds of this invention to bind to the hNET and serotonin SERT receptor can be determined using conventional radiolig and receptor binding assays. The receptors can be heterologously expressed in cell lines and experiments conducted in membrane preparations from the cell lines using procedures outlined below. IC50 concentrations can be determined by nonlinear regression of concentration-dependent reduction in specific binding. The Cheng-Prussoff equation can be used to convert the IC50 to Ki concentrations.
Cell pastes of HEK-293 cells transfected with the human norepinephrine transporter were supplied by the Pfizer Ann Arbor Protein Expression and Production group. […] Aliquots of membranes (5 mg/ml protein) were stored in liquid nitrogen until used.
(§2) The reaction was incubated by gentle agitation for 90 min at room temperature and was terminated by filtration through Whatman GF/C filter plates using a Brandel 96-well plate harvester. […] Test compounds were run in duplicate, and specific binding was defined as the difference between binding in the presence and absence of 10 μM desipramine.
(§3) Excel and GraphPad Prism software were used for data calculation and analysis. IC50 values were converted to Ki values using the Cheng-Prusoff equation.

[2] = target: T2, human seritonin transporter (Homo sapiens, UniProt P31645); test: hSERT receptor binding ([125I]-RTI-55 radioligand binding); settings: membranes of HEK-293 cells transfected with human seritonin transporter, IC50 converted to Ki by Cheng-Prusoff, read-out: SERT (Ki)
T2 construct: host or cells: HEK-293
Excerpt: as §1
Cell pastes of HEK-293 cells transfected with the human seritonin transporter were supplied by the Pfizer Ann Arbor Protein Expression and Production group. […] Aliquots of membranes (5 mg/ml protein) were stored in liquid nitrogen until used.
as §2, with “[…] citalopram.” for “μM desipramine.”
as §3

T2 sequence (P31645 whole entry): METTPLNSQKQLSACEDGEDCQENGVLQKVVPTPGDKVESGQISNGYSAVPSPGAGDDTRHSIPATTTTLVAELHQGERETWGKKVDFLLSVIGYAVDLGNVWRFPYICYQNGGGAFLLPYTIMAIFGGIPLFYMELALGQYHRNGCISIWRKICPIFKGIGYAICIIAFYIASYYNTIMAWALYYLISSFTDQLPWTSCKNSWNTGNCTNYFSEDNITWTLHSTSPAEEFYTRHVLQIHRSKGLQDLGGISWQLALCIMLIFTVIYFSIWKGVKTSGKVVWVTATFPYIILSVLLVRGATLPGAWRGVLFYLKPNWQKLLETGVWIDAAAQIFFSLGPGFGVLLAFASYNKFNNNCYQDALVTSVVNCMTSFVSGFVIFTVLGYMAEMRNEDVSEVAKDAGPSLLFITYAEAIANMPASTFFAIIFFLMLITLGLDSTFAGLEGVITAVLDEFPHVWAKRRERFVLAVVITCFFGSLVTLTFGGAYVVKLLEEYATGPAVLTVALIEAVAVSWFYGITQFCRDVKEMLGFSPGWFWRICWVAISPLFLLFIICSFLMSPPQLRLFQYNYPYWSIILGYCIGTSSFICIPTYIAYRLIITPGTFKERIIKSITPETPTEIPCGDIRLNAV
T1 sequence (P23975 whole entry): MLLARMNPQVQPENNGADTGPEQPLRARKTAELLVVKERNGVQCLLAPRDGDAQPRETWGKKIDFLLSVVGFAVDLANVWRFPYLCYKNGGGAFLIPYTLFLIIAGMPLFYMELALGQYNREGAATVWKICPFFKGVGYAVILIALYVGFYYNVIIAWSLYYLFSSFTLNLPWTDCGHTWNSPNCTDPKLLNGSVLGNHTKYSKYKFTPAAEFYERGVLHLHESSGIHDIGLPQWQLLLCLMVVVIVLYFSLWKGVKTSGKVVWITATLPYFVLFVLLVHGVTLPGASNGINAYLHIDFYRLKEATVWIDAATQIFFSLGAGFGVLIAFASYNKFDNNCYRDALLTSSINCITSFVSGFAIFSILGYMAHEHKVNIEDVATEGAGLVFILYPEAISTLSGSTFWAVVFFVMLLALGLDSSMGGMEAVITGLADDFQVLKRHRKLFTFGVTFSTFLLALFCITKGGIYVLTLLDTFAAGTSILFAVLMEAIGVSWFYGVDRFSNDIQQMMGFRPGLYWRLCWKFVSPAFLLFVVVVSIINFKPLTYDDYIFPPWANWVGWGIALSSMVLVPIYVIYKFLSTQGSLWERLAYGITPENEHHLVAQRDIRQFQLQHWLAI

Structure (SMILES) | Ki ([1]; read-out: hNET (Ki)) [nM] | Ki [2] [nM] | Ki ([1]; hNET (Ki)) [nM]
c1ccc(Oc2ccccc2O[C@@H](c2ccccc2)[C@@H]2CNCCO2)cc1 [Example 14, (S)-2-[(S)-(2-Phenoxy-phenoxy)-phenyl-methyl]-morpholine] | 61 | ≥ 10000 | –
CCOC(=O)c1ccccc1O[C@@H](c1ccccc1)[C@@H]1CNCCO1 [Example 15, (2S,3S)-2-(Morpholin-2-yl-phenyl-methoxy)-benzoic acid ethyl ester] | 15 | 3770 | –
Clc1ccc(-c2ccccc2O[C@@H](c2ccccc2)[C@@H]2CNCCO2)cc1 [Example 16, (S)-2-[((S)-4′-Chloro-biphenyl-2-yloxy)-phenyl-methyl]-morpholine] | 99 | 4500 | –
Fc1ccccc1O[C@@H](c1ccccc1)[C@H]1CNCCO1 [Example 18, (R)-2-[(S)-(2-Fluoro-phenoxy)-phenyl-methyl]-morpholine] | 133 | 72 | –
CCOc1ccccc1O[C@H](c1ccccn1)[C@@H]1CNCCO1 [Example 20, (S)-2-[(R)-(2-Ethoxy-phenoxy)-pyridin-2-yl-methyl]-morpholine] | 593 | ≥ 10000 | –
CCOc1ccccc1O[C@@H](c1ccccn1)[C@@H]1CNCCO1 [Example 21, (S)-2-[(S)-(2-Ethoxy-phenoxy)-pyridin-2-yl-methyl]-morpholine] | 6.8 | 2500 | –
N#Cc1ccccc1OC(c1cccnc1)[C@@H]1CNCCO1 (stereo partly drawn) [Example 24, (2S,3R)-2-(Morpholin-2-yl-pyridin-3-yl-methoxy)-benzonitrile] | 210 | 7720 | –
FC(F)(F)Oc1ccccc1O[C@@H](c1cccnc1)[C@H]1CNCCO1 [Example 26, (R)-2-[(S)-Pyridin-3-yl-(2-trifluoromethoxy-phenoxy)-methyl]-morpholine] | 359 | 2440 | –
Fc1ccc(O[C@H](c2ccccn2)[C@H]2CNCCO2)c(F)c1 [Example 27] | 7900 | 412 | –
Fc1ccc(O[C@@H](c2ccccn2)[C@H]2CNCCO2)c(F)c1 [Example 28] | 8410 | 1410 | –
[O-][n+]1ccccc1O[C@@H](c1ccccc1)[C@@H]1CNCCO1 [Example 29, (S)-2-[((S)-1-Oxy-pyridin-2-yloxy)-phenyl-methyl]-morpholine] | 154 | ≥ 10000 | –
Clc1ccccc1-c1ccccc1O[C@@H](c1ccccc1)[C@@H]1CNCCO1 [Example 30, (S)-2-[(S)-(2′-Chloro-biphenyl-2-yloxy)-phenyl-methyl]-morpholine] | 41 | ≥ 10000 | –
Fc1ccc(Oc2ncccc2OC[C@@H]2CNCCO2)cc1 [Example 32, (S)-2-[2-(4-Fluoro-phenoxy)-pyridin-3-yloxymethyl]-morpholine] | 36 | ≥ 10000 | –
Fc1ccc(-c2ncccc2O[C@@H](c2ccccc2)[C@@H]2CNCCO2)cc1 [Example 33, (S)-2-{(S)-[2-(4-Fluoro-phenyl)-pyridin-3-yloxy]-phenyl-methyl}-morpholine] | 22 | 2410 | –
Fc1ccc([C@H](Oc2ccccc2F)[C@H]2CNCCO2)cc1 [Example 34, (R)-2-[(S)-(2-Fluoro-phenoxy)-(4-fluoro-phenyl)-methyl]-morpholine] | 141 | 184 | –
CCOc1ccccc1OC(c1ccc(F)cc1)[C@H]1CNCCO1 (stereo partly drawn) [Example 35] | 11 | 605 | –
Fc1cccc(F)c1O[C@@H](c1ccccc1)[C@@H]1CNCCO1 [Example 36, (S)-2-[(S)-(2,6-Difluoro-phenoxy)-phenyl-methyl]-morpholine] | 3.7 | 471 | –

Structure (SMILES) | Ki ([1]; read-out: hNET (Ki)) [nM] | Ki [2] [nM] | Ki ([1]; hNET (Ki)) [nM]
CCOc1ccccc1OC(CC1CCCCC1)[C@@H]1CNCCO1 (stereo partly drawn) [Example 37, (S)-2-[(S)-2-Cyclohexyl-1-(2-ethoxy-phenoxy)-ethyl]-morpholine and (2S,3-R)-2-[2-Cyclohexyl-1-(2-ethoxy-phenoxy)-ethyl]-morpholine] | 12 | 163 | –
CCOc1ccccc1O[C@@H](CC(C)C)[C@@H]1CNCCO1 [Example 38, (S)-2-[(S)-1-(2-Ethoxy-phenoxy)-3-methyl-butyl]-morpholine] | 517 | 4100 | –
C=CCc1ccccc1O[C@@H](c1ccccc1)[C@@H]1CNCCO1 [Example 39, (S)-2-[(S)-(2-Allyl-phenoxy)-phenyl-methyl]-morpholine] | 3.7 | 475 | –
c1ccc([C@H](Oc2cccnc2)[C@@H]2CNCCO2)cc1 [Example 40, (S)-2-[(S)-Phenyl-(pyridin-3-yloxy)-methyl]-morpholine] | 317 | 828 | –
Brc1ncccc1O[C@@H](c1ccccc1)[C@@H]1CNCCO1 [Example 41, (S)-2-[(S)-(2-Bromo-pyridin-3-yloxy)-phenyl-methyl]-morpholine] | 17 | 17 | –
Cc1ccc(-c2ncccc2O[C@@H](c2ccccc2)[C@@H]2CNCCO2)cc1 [Example 42, (S)-2-[(S)-Phenyl-(2-p-tolyl-pyridin-3-yloxy)-methyl]-morpholine] | 68 | 4940 | –
CC(C)c1ccccc1O[C@@H](c1ccccc1)[C@@H]1CNCCO1 [Example 44, (S)-2-[(S)-(2-Isopropyl-phenoxy)-phenyl-methyl]-morpholine] | 5.3 | 1360 | –
CC(C)Oc1ccccc1O[C@@H](c1ccccc1)[C@@H]1CNCCO1 [Example 46, (S)-2-[(S)-(2-Isopropoxy-phenoxy)-phenyl-methyl]-morpholine] | 6.5 | 5630 | –
Fc1ccc([C@H](Oc2ccccc2Br)[C@H]2CNCCO2)cc1 [Example 47, (R)-2-[(S)-(2-Bromo-phenoxy)-(4-fluoro-phenyl)-methyl]-morpholine] | 8.4 | 52 | –
c1ccc([C@H](Oc2ccc3occc3c2)[C@@H]2CNCCO2)cc1 [Example 48, (S)-2-[(S)-(Benzofuran-5-yloxy)-phenyl-methyl]-morpholine] | 31 | 10 | –
Cc1ccccc1O[C@@H](c1ccccc1)[C@@H]1CNCCO1 [Example 49, (S)-2-((S)-Phenyl-o-tolyloxy-methyl)-morpholine] | 8.9 | 729 | –
CCOc1ccccc1O[C@@H](C1CCCCC1)[C@@H]1CNCCO1 [Example 51, (S)-2-[(S)-Cyclohexyl-(2-ethoxy-phenoxy)-methyl]-morpholine] | 16 | ≥ 10000 | –
c1ccc([C@H](Oc2ccccc2N2CCNCC2)[C@@H]2CNCCO2)cc1 [Example 52, (S)-2-[(S)-Phenyl-(2-piperazin-1-yl-phenoxy)-methyl]-morpholine] | – | 1350 | 1620
CSc1ccccc1O[C@@H](c1ccccc1)[C@@H]1CNCCO1 [Example 53, (S)-2-[(S)-(2-Methylsulfanyl-phenoxy)-phenyl-methyl]-morpholine] | 5.9 | 259 | –
CS(=O)(=O)c1ccccc1O[C@@H](c1ccccc1)[C@@H]1CNCCO1 [Example 54, (S)-2-[(S)-(2-Methanesulfonyl-phenoxy)-phenyl-methyl]-morpholine] | 1310 | ≥ 10000 | –
c1ccc([C@H](Oc2ccccc2C2CCCC2)[C@@H]2CNCCO2)cc1 [Example 55, (S)-2-[(S)-(2-Cyclopentyl-phenoxy)-phenyl-methyl]-morpholine] | 12 | 2240 | –
